# According to PMC5390315 (Scientific Reports, 2017):
# Several values for one entry are separate records, joined by “and”; a condition that tells them apart may be missing. Equal values may be shown once.
# How the values were obtained:
# [1] = system: HeLa; assay: Antiproliferative MTT assay, HeLa; type: cell-based, human; conditions: Homo sapiens, HeLa, 72 h, mean ± SE
# Method: (§1) Human T-cell leukemia (Jurkat) and human B-cell leukemia (SEM and RS4;11) cells were grown in RPMI-1640 medium (Gibco, Milano, Italy). Breast adenocarcinoma (MCF-7), human cervix carcinoma (HeLa), human lung adenocarcinoma (A549) and human colon adenocarcinoma (HT-29) cells were grown in DMEM medium (Gibco, Milano, Italy), all supplemented with 115 units/mL penicillin G (Gibco, Milano, Italy), 115 μg/mL streptomycin (Invitrogen, Milano, Italy), and 10% fetal bovine serum (FBS; Invitrogen, Milano, Italy). Stock solutions (10 mM) of the different compounds were obtained by dissolving them in DMSO. Individual wells of a 96-well tissue culture microtiter plate were inoculated with 100 μL of complete medium containing 8 × 10^3 cells. The plates were incubated at 37 °C in a humidified 5% CO2 incubator for 18 h prior to the experiments. After medium removal, 100 μL of fresh medium containing the test compound at different concentrations was added to each well in triplicate and incubated at 37 °C for 72 h. The percentage of DMSO in the medium never exceeded 0.25%. This was also the maximum DMSO concentration in all cell-based assays described below.
# [2] = system: HT-29; assay: Antiproliferative MTT assay, HT-29; type: cell-based, human; conditions: Homo sapiens, HT-29, 72 h, mean ± SE
# Method: as §1
# [3] = system: Jurkat; assay: Antiproliferative MTT assay, Jurkat; type: cell-based, human; conditions: Homo sapiens, Jurkat, 72 h, mean ± SE
# Method: as §1
# [4] = system: PBL not stimulated with PHA; assay: Cytotoxicity in resting peripheral blood lymphocytes; type: cell-based; conditions: Homo sapiens, Lymphocyte, 72 h, MTT, mean ± SEM, read-out: IC50 PBLresting
# Method: (§2) Peripheral blood lymphocytes (PBL) from healthy donors were obtained from human peripheral blood (leucocyte rich plasma- buffy coats) from healthy volunteers using the Lymphoprep (Fresenius KABI Norge AS) gradient density centrifugation.
# (§3) After extensive washing, cells were resuspended (1.0 × 10^6 cells/mL) in RPMI-1640 with 10% FBS and incubated overnight. For cytotoxicity evaluations in proliferating PBL cultures, non-adherent cells were resuspended at 5 × 10^5 cells/mL in growth medium, containing 2.5 μg/mL PHA (Irvine Scientific). Different concentrations of the test compounds were added, and viability was determined 72 h later by the MTT test. For cytotoxicity evaluations in resting PBL cultures, non-adherent cells were resuspended (5 × 10^5 cells/mL) and treated for 72 h with the test compounds, as described above.
# [5] = system: PBL stimulated with PHA; assay: Cytotoxicity in PHA-stimulated peripheral blood lymphocytes; type: cell-based; conditions: Homo sapiens, Lymphocyte, 72 h, MTT, mean ± SEM, read-out: IC50 PBLPHA
# Method: as §2, §3
# [6] = system: HUVECs; assay: Cytotoxicity in HUVECs; type: cell-based; conditions: Homo sapiens, HUVEC; primary HUVECs
# Method: (§4) HUVECs were prepared from human umbilical cord veins, as previously described. The adherent cells were maintained in M200 medium supplemented with LSGS (Low Serum Growth Supplement), containing FBS, hydrocortisone, hEGF, bFGF, heparin, gentamycin/amphotericin (Life Technologies, Monza, Italy). Once confluent, the cells were detached by a trypsin–EDTA solution and used in experiments from the first to sixth passages.
# [7] = system: bovine brain tubulin; assay: Inhibition of tubulin polymerization; type: biochemical; conditions: tubulin at 10 μM; read-out: Tubulin assembly IC50 ± S.D
# Method: (§5) To evaluate the effect of the compounds on tubulin assembly in vitro[41], varying concentrations of compounds were preincubated with 10 μM bovine brain tubulin in 0.8 M monosodium glutamate (pH adjusted to 6.6 with HCl in a 2.0 M stock solution) at 30 °C and then cooled to 0 °C. After addition of 0.4 mM GTP, the mixtures were transferred to 0 °C cuvettes in a recording spectrophotometer and warmed to 30 °C. Tubulin assembly was followed turbidimetrically at 350 nm. […] The capacity of the test compounds to inhibit colchicine binding to tubulin was measured as described, except that the reaction mixtures contained 1 μM tubulin, 5 μM [^3H]colchicine and 1 or 5 μM test compound.
# [8] = system: tubulin; assay: Inhibition of [3H]colchicine binding to tubulin; conditions: tubulin 1 μM, [3H]colchicine 5 μM
# Method: as §5
# [9] = system: HeLa cells; assay: Mitotic cells by p-histone H3/PI flow cytometry; type: cell-based, human; conditions: 100 nM, 24 h, untreated 1.3%
# [10] = system: HeLa cells; assay: Annexin-V/PI apoptosis assay, HeLa; type: cell-based, human; conditions: 60 nM, 24 h
# Method: (§6) Cell death was determined by flow cytometry of cells double stained with annexin V/FITC and PI. The Coulter Cytomics FC500 (Beckman Coulter) was used to measure the surface exposure of PS on apoptotic cells according to the manufacturer’s instructions (Annexin-V Fluos, Roche Diagnostics).
# [11] = system: Jurkat cells; assay: Annexin-V/PI apoptosis assay, Jurkat; type: cell-based, human; conditions: 60 nM, 24 h
# Method: as §6
# [12] = system: Jurkat cells; assay: ROS production (H2-DCFDA), Jurkat; type: cell-based, human; conditions: 100 nM, untreated about 4%
# [13] = system: HeLa cells; assay: ROS production (H2-DCFDA), HeLa; type: cell-based, human; conditions: 100 nM, untreated about 4%
# [14] = system: BL6-B16 murine melanoma cells; assay: Mouse allograft tumor model (BL6-B16 melanoma); type: in vivo
# Text: Animal experiments were approved by our local animal ethics committee (OPBA, Organismo Preposto al Benessere degli Animali, Università degli Studi di Brescia, Italy) and were executed in accordance with national guidelines and regulations. Procedures involving animals and their care conformed with institutional guidelines that comply with national and international laws and policies (EEC Council Directive 86/609, OJ L 358, 12 December 1987) and with “ARRIVE” guidelines (Animals in Research Reporting In Vivo Experiments). Six week old C57BL/6 mice (Charles River, Calco) were injected subcutaneously into the dorsolateral flank with 2.5x10^5 BL6-B16 murine melanoma cells in 200 μL of PBS. When tumors were palpable, animals were treated intraperitoneally every other day with different doses of test compounds dissolved in 50 μL of DMSO. Tumors were measured in two dimensions, and tumor volume was calculated according to the formula V = (D × d^2)/2, where D and d are the major and minor perpendicular tumor diameters, respectively.
# [15] = system: HUVECs; assay: HUVEC scratch wound motility assay; type: cell-based, human; conditions: 100 nM, 6 h and 24 h
# Method: as §4
# The motility assay for HUVECs was based on “scratch” wounding of a confluent monolayer. Briefly, HUVECs (1x10^5) were seeded onto 6-well plates coated with 0.1% collagen type I (BD Biosciences, Italy) in complete medium until a confluent monolayer was formed. The cells were wounded using a pipette tip, and wells were washed with PBS to remove undetached cells. Then, the cells were treated with the test compounds, and, at different times from the scratch, the cells were photographed under a light microscope. At all indicated time points, the wound width was measured in four areas and compared with the initial width.
smiles,measurement,setting,value
"CCOc1ccc(-c2oc(C)nc2-c2cc(OC)c(OC)c(OC)c2)cc1 [Compound 4i, 4-(3,4,5-Trimethoxyphenyl)-5-(4-ethoxyphenyl)-2-methyloxazole]",IC50,[1],0.9 ± 0.3 nM
same,IC50,[2],20.2 ± 8.8 nM
same,IC50,[3],4.1 ± 1.1 nM
same,IC50,[4],14900 ± 3500 nM
same,IC50,[5],18300 ± 1500 nM
same,IC50,[6],> 100000 nM
same,IC50,[7],560 ± 100 nM
same,"Colchicine binding % inhibition ± S.D, 1 μM drug",[8]; 1 μM drug,62 ± 0.4%
same,"Colchicine binding % inhibition ± S.D, 5 μM drug",[8]; 5 μM drug,82% and 86 ± 1%
same,percentage of mitotic cells (p-histone H3),[9],~46%
same,apoptotic cells (annexin-V),[10],70%
same,apoptotic cells (annexin-V),[11],40%
same,DCF positive cells (ROS production),[12],25–30%
same,DCF positive cells (ROS production),[13],25–30%
same,reduction in tumor mass,"[14]; 3.0 mg/kg i.p. on days 9, 11 and 14",34.9%
same,reduction in tumor mass,"[14]; 7.5 mg/kg i.p. on days 9, 11 and 14",52.5%
same,signs of toxicity in mice,[14]; highest dose (7.5 mg/kg i.p.),did not show any sign of toxicity
same,animal body weight,"[14]; highest dose (7.5 mg/kg i.p.), data not shown",did not cause a decrease in animal body weight
same,HUVEC cell migration (wound healing),[15],significantly reduced
